Source: US20190358220A1, “INTEGRATOR INHIBITORS AND METHODS FOR THEIR USE” (UNIVERSITY OF MIAMI, priority 2017, published 2019)

What was measured:
[1] = test system: RSK1 phosphorylation; experiment: Immunoblot of downstream MAPK target phosphorylation in HeLa cells; type: cell-based, human; details: SCH772984 1 μM for 3 hours
Protocol: FIG. 4A is an immunoblot of HeLa cells that were transduced with doxycycline-inducible shRNAs targeting INTS11 and treated with ERK inhibitor (SCH772984, 1 μM) for 3 hours.
Integrator depletion abrogates EGF transcriptional responsiveness in HeLa cells. See Gardini, A. et al Molecular Cell 56, 128-139 (2014). To dissect the signaling pathway that mediates the EGF transcriptional response of immediate early genes (IEGs), HeLa cells were treated with an ERK1/2 inhibitor (SCH772984) prior to EGF stimulation and analyzed EGF responsive gene expression using Chromatin RNA-sequencing (ChromRNA-seq), which provides for an enriched fraction of nascent RNAs. There were 106 genes that consistently respond (2-fold induction) to EGF stimulation at the 20-minute time point.
Antibodies used for CHIP and immunoblot include: INTS11 (A301-274A, Bethyl Laboratories, Inc., Montgomery, Tex.), RNAPII (sc-899, Santa Cruz Biotechnology, Paso Robles, Calif.), GAPDH (sc-25778, Santa Cruz), phospo-ERK1/2 (#9101, Cell Signaling technology), ERK1/2 (#9102, Cell Signaling technology), Phospho-p90RSK (Thr359) (#8753, Cell Signaling technology), and RSK1 (#9333, Cell Signaling technology). Flag M2-conjugated beads (Sigma, 2220) were used for immunoprecipitation.

[2] = test system: ovarian cancer cell lines (A2780, OVCAR10, PEO1, PEO4); experiment: Viability assay (PrestoBlue), ovarian cancer cells; type: cell-based
Protocol: Cell viability was determined by Prestoblue and presented as percent of vehicle. Three independent biological replicates were used to calculate the average. Two-sided t-test, **P<0.01 for corresponding comparisons.
Therefore, ovarian cancer cells were used to assess the effectiveness of targeting Integrator in cancers without activating mutations in the MAPK pathway. Phendione was compared with the conventional chemotherapeutic drug, cisplatin, a DNA crosslinking agent, which is frequently used in the treatment of the ovarian cancer. The effectiveness of INTS11 depletion in reducing the proliferation of PEO4 ovarian cancer cells was first measured (FIGS. 11, 12A, and 12B). Next, four ovarian cancer cell lines were treated with phendione or cisplatin.
(§1) The cells were plated 5000 per well in 96-well black plates with a clear bottom and maintained under normal conditions over night before the drug treatment. The cell viability was measured 4 days after treatment using PrestoBlue (Invitrogen cat No A13261). GraphPad Prism software was used to generate dose response curves and calculate IC50 values. Each experiment was repeated at least three times.

[3] = test system: lung cancer cell lines (NCI-H1975, NCI-H2444, NCI-H1650) and melanoma cell lines (SK-MEL28 and A375); experiment: Viability assay (PrestoBlue), MAPK-driven cancer cell lines; type: cell-based; details: all MAPK-driven cancer cell lines, 96 hours treatment
Protocol: Cell viability was determined by Prestoblue and presented as percent of vehicle. Three independent biological replicates were used to calculate the average. […] Two-sided t-test, **P<0.01 for corresponding comparisons.
The NCI-H1650 lung cancer cell line containing heterozygous deletion in EGFR (delE746-A750) was treated with two different siRNAs to INTS11, or control non-targeting siRNAs, and cellular proliferation was measured using 5-ethynyl-2′-deoxyuridine (EdU), a sensitive and quantitative measure of cellular growth. […] SK-MEL28 also contains a homozygous EGFR mutation (P753S).
as §1

[4] = test system: IMR90 human fibroblasts and BEAS-2B normal lung epithelial cells; experiment: Cell viability of normal cells; type: cell-based; details: IMR90 and BEAS-2B
Protocol: as §1

Structure (SMILES)	phosphorylation of RSK1 [1]	responsiveness of cisplatin-resistant ovarian cancer cells ([2]; A2780 and OVCAR10, known resistance to cisplatin)	sensitivity of cellular viability ([2]; all four ovarian cancer lines, 96 hours treatment)	IC50 of viability compared with MAPK pathway inhibitors [3]	sensitivity of normal cells (cell viability) [4]
O=C(Nc1ccc2[nH]nc(-c3ccncc3)c2c1)[C@@H]1CCN(CC(=O)N2CCN(c3ccc(-c4ncccn4)cc3)CC2)C1 [SCH772984]	abrogation of downstream MAPK-mediated target phosphorylation of RSK1	–	–	–	–
O=C1C(=O)c2cccnc2-c2ncccc21 [phendione, 1,10-phenanthroline-5,6-dione]	–	sensitive to phendione	exquisite sensitivity	IC50s less than or equal to that of MAPK pathway inhibitors	sensitive to phendione
